Data reported in patent US20250228880A1, “REDOX-ACTIVE COMPOUNDS AND RELATED COMPOUNDS, COMPOSITIONS, METHODS AND SYSTEMS” (CALIFORNIA INSTITUTE OF TECHNOLOGY, priority 2008, published 2025).
Where “and” joins values, the source holds several entries; their conditions need not be identical. Equal entries are not always repeated. Entries after “also recorded” stand apart in the source; their conditions may differ. Where two headings read alike, the source gives them in different places.

Tests used:
[1] = literature values (footnotes a, c, d, e); oxidized form; cited from earlier work
[2] = system: P. aeruginosa PA14 Δphz mutant; assay: Anaerobic survival in bulk electrolysis bioreactor (viable cell counts, CFU); assay type: cell-based, Pseudomonas aeruginosa; settings: for Support survival?: anaerobic survival of Δphz over 7 days, 10^9 cells/mL, 20 mM D-glucose, about 90 µM compound, electrode at +0.2 V vs. NHE, CFU on LB agar
Protocol: Microbiological methods. P. aeruginosa strain UCBPP-PA14 with deletions of two redundant phenazine biosynthetic operons phzA1-G1 and phzA2-G2, hereafter referred to as the Δphz mutant, was cultivated aerobically at 37° C. in Luria-Bertani (LB) broth (Fisher Scientific) to stationary phase. A washing procedure using centrifugation to collect cell pellets and vortexing to resuspend cell pellets in sterile PBS buffer (recipe) was repeated twice. For centrifugation, the cultures were split into 50 mL sterile centrifuge tubes and centrifuged for 8 minutes at 6000 g, at 4° C. After washing, cell culture was concentrated by resuspending pellets in PBS buffer with one-tenth of original cultural volume. Optical density of this culture was measured at 500 nm using Beckman Coulter D U 800 spectrophotometer. Dilution was performed to yield the OD reading below 0.8. The culture aliquots were then transferred into electrochemical cells with oxygen-free minimal salt medium (20 mM glucose as the carbon source) to serve as the cultures electrochemical studies (see next section for details).
Survival experiments in electrochemical setup. Electrochemical measurements were performed with a Gamry G- potentiostat. All experiments were conducted in an O2— and H2— free glovebox (MBraun) at 30° C. and in the dark. All measured potentials were referenced to a Ag/AgCl electrode (RE-5B, BASi). Reported potentials were referenced to the Normal Hydrogen Electrode NHE (V vs. NHE=V vs. Ag/AgCl+207 mV) to permit comparisons with other studies. A graphite rod (6.15 mm dia ×152 mm long, Alfa Aesar) was used as the working electrode, and the operating surface area was 6 cm^2. The counter electrode was made from a platinum mesh (Alfa Aesar) soldered to a copper wire. The working electrode was in a sample compartment together with the reference electrode. The counter electrode was in another compartment isolated from the working electrode. The two compartments were joined by a fritted glass junction. The controlled potential bulk electrolysis was set at 0 V vs. Ag/AgCl. This potential is mild enough to only oxidize reduced phenazines, but not other components in the cultural medium.
To test whether phenazine electron shuttling can help P. aeruginosa survive, 100 µM phenazine, 20 mM glucose, high or low initial cell densities in the range of 10^9 cells/mL or 10^7 cells/mL were added to the medium to give total 100 mL suspension in the compartment along with the working and reference electrodes, and the potential was applied at 0 V (vs. Ag/AgCl) for 7 days. Cell suspension aliquots were taken as a function of time for viable colony counts. Current and charge transferred were recorded continuously. Cultures without phenazine, or without the potential applied, or without both were served as the controls. To confirm that glucose is used as the carbon source in the case of survival, experiments with or without glucose addition were compared.
To investigate the effect of redox-active small molecules on anaerobic survival of redox active organisms, Applicants tested the effect of redox-active molecule in P. aeruginosa PA14. In particular, Applicants assembled bulk electrolysis-based glass bioreactors housed within an O2— and H2— free glovebox (MBraun) and controlled by a multichannel potentiostat (Gamry, Series G 300) outside the glovebox. Each bioreactor held a graphite rod working electrode (Alfa Aesar) with an operating surface area of 6 cm^2, a Ag/AgCl reference electrode (BASi, RE-5B) with a constant potential of +0.207 V vs. the normal hydrogen electrode (NHE), and about 100 mL MOPS culture medium [100 mM MOPS at pH 7.2, 93 mM NH4Cl, 43 mM NaCl, 2.2 mM KH2PO4, 1 mM MgSO4, […]](modified from ref. (Palmer, K. L., L. M. Mashburn, P. K. Singh, and M. Whiteley. 2005. Cystic fibrosis sputum supports growth and cues key aspects of Pseudomonas aeruginosa physiology. Journal of Bacteriology 187:5267-5277)). […]

[3] = system: P. aeruginosa PA14 Δphz mutant; assay: Reduction by PA14 (colour change in survival control experiments without poised potential); assay type: cell-based, Pseudomonas aeruginosa; settings: intracellular reduction by Δphz cells
[4] = Reduction potential E0' (cyclic voltammetry); assay type: physicochemical; settings: measured in aqueous solution at pH 7 in this study (footnote b)
[5] = system: Pseudomonas aeruginosa PA14 phenazine null mutant; assay: Colony morphology assay; assay type: cell-based; settings: pyocyanin added to the growth medium (50 μM HPLC-purified, 1% tryptone, 1% agar plates)
Protocol: In particular, in FIG. 8 is shown how the phenazine null mutant forms smooth colonies in the presence of exogenous phenazines. […] Image was taken after 5 days.
Colony morphology assay: colony morphology assay was performed with Pseudomonas aeruginosa and Streptomyces coelicolor as described herein below: a) Pseudomonas aeruginosa PA 14: Strains were grown in LB medium to late exponential phase, then 10 μl were spotted onto 1% agar plates containing 10 g/L Tryptone Broth, supplemented with […] Congo Red and […] Coomassie Blue as described previously (L. Friedman, R. Kolter, Mot Microbial 51, 675 (2004)). Plates were incubated at room temperature. Colonies were imaged using an Epson Perfection 2400 Photo Scanner at 600 dpi resolution, Nikon stereomicroscope or a digital microscope (Proscope). b) Streptomyces coelicolor A3(2): 10 µl of a spore suspension in water was spotted onto plates with R5-medium. Plates were incubated at room temperature for six days. Colonies were imaged using a Nikon stereomicroscope.

Row | SMILES | E^0′ (vs. NHE) [1] | Support survival? [2] | Reduction by PA14? [3] | Support survival? ([2]; listed as paraquat) | Reduction by PA14? ([3]; listed as paraquat) | E^0′ (vs. NHE) [4] [mV] | drop of viable cells ([2]; regardless of bioreactor experimental conditions, 7 days) | survival vs. growth at low cell density ([2]; viable cells at 10^7 CFU/mL, data not shown) | drop of viable cells from the original CFU ([2]; without D-glucose, with PYO and the poised potential, by day 6) | colony morphology of the phenazine null mutant [5]
1 | O=C1c2ccc(S(=O)(=O)O)cc2C(=O)c2ccc(S(=O)(=O)O)cc21 [2,6-AQDS] | −184^d mV | No | only a small portion of 2,6-AQDS was reduced; also recorded: Yes (very slowly) | – | – | – | – | – | – | –
2 | C[n+]1ccc(-c2cc[n+](C)cc2)cc1 [Paraquat] | −446 mV and −446^e mV | No | No | cannot support anaerobic survival of Δphz | cannot be reduced by Δphz | – | – | – | – | –
3 | O=C(O)Cc1cc(O)ccc1O [HMA, Homogentisic acid] | – | cannot support Δphz survival and No | – | – | – | – | – | – | – | –
4 | Oc1cccc2nc3ccccc3nc12 [1-OHPHZ, 1-hydroxyphenazine] | −174^a mV | promote anaerobic survival and Yes | Yes | – | – | – | – | – | – | –
5 | CN(C)c1ccc2nc3ccc(=[N+](C)C)cc-3sc2c1 [MB, Methylene blue] | +11 mV | cannot support Δphz survival and No | reduced intracellularly and Yes | – | – | 0 | 3 orders of magnitude | – | – | –
6 | O=C(O)c1cccc2nc3ccccc3nc12 [PCA, phenazine-1-carboxylic acid] | −114^a mV | promote anaerobic survival and Yes | Yes | – | – | – | – | – | – | –
7 | C[n+]1c2ccccc2nc2c([O-])cccc21 [PYO, Pyocyanin] | −40^a mV | promote anaerobic survival and Yes | Yes | – | – | – | – | supported only survival but not growth | 4 orders of magnitude | smooth compact colonies
